Values after ≈ are worked out from the molar mass of the structure shown. Like-named read-outs stand apart in the source and are kept apart here.
Key:
[1] = tested on: P. aeruginosa; assay: microbe, parasite or virus in culture; details: Pseudomonas aeruginosa
Outline: (§1)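 MICs were scored by eye after 18-20 h static incubation at 37 °C, with bacteria at 5 × 10^5 CFU mL^−1 in MHB. Peptides were serially diluted 2-fold over 12 points, top 128 or 64 μg mL^−1. CAMHB (CLSI) and 1% agarose-MHB variants were also run, at least six replicates.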

[2] = tested on: S. aureus; assay: microbe, parasite or virus in culture
Outline: as §1

[3] = tested on: E. coli; set-up: method as in Hasman H, et al. Euro. Surveill. (2015) 20:49; details: E. coli ESBL20150072, mcr-1 pos; ESBL; CAMHB; comparator antibiotics; ref Hasman H, et al. Euro. Surveill. (2015) 20:49; cited from earlier work

## C[C@@H](O)[C@H]1C(=O)N2C(C(=O)O)=C(S[C@@H]3CN[C@H](C(=O)N(C)C)C3)[C@H](C)[C@H]12 [Meropenem, meropenem, reference compound]
[1]; ATCC27853, read-out: MIC, broth microdilution, P. aeruginosa ATCC 27853 spontaneous mutant, AA139 selection 4X, plate 2, colony 1, drug-free passage 5
  MIC: 0.25 µg/mL (≈ 0.652 µM)
[1]; ATCC27853, read-out: MIC, broth microdilution, P. aeruginosa ATCC 27853 spontaneous mutant, AA139 selection 4X, plate 2, colony 2, drug-free passage 1
  MIC: 0.5 µg/mL (≈ 1.3 µM)
[1]; ATCC27853, read-out: MIC, broth microdilution, P. aeruginosa ATCC 27853 spontaneous mutant, AA139 selection 4X, plate 2, colony 2, drug-free passage 5
  MIC: 0.25 µg/mL (≈ 0.652 µM)
[1]; ATCC27853, read-out: MIC, broth microdilution, P. aeruginosa ATCC 27853 spontaneous mutant, AA139 selection 4X, plate 2, colony 3, drug-free passage 1
  MIC: 0.5 µg/mL (≈ 1.3 µM)
[1]; ATCC27853, read-out: MIC, broth microdilution, P. aeruginosa ATCC 27853 spontaneous mutant, AA139 selection 4X, plate 2, colony 3, drug-free passage 5
  MIC: 0.25 µg/mL (≈ 0.652 µM)
[1]; ATCC27853, read-out: MIC, broth microdilution, P. aeruginosa ATCC 27853 spontaneous mutant, AA139 selection 4X, plate 2, colony 4, drug-free passage 1
  MIC: 0.5 µg/mL (≈ 1.3 µM)
[1]; ATCC27853, read-out: MIC, broth microdilution, P. aeruginosa ATCC 27853 spontaneous mutant, AA139 selection 4X, plate 2, colony 4, drug-free passage 5
  MIC: 0.25 µg/mL (≈ 0.652 µM)
[1]; ATCC27853, read-out: MIC, broth microdilution, P. aeruginosa ATCC 27853 spontaneous mutant, AA139 selection 8X, plate 1, colony 1, drug-free passage 1
  MIC: 0.5 µg/mL (≈ 1.3 µM)
[1]; ATCC27853, read-out: MIC, broth microdilution, P. aeruginosa ATCC 27853 spontaneous mutant, AA139 selection 8X, plate 1, colony 1, drug-free passage 5
  MIC: 0.5 µg/mL (≈ 1.3 µM)
[1]; ATCC27853, read-out: MIC, broth microdilution, P. aeruginosa ATCC 27853 spontaneous mutant, AA139 selection 8X, plate 1, colony 2, drug-free passage 1
  MIC: 0.25 µg/mL (≈ 0.652 µM)
[1]; ATCC27853, read-out: MIC, broth microdilution, P. aeruginosa ATCC 27853 spontaneous mutant, AA139 selection 8X, plate 1, colony 2, drug-free passage 5
  MIC: 0.5 µg/mL (≈ 1.3 µM)
[1]; ATCC27853, read-out: MIC, broth microdilution, P. aeruginosa ATCC 27853 spontaneous mutant, AA139 selection 8X, plate 1, colony 3, drug-free passage 1
  MIC: 0.25 µg/mL (≈ 0.652 µM)
[1]; ATCC27853, read-out: MIC, broth microdilution, P. aeruginosa ATCC 27853 spontaneous mutant, AA139 selection 8X, plate 1, colony 3, drug-free passage 5
  MIC: 0.25 µg/mL (≈ 0.652 µM)
[1]; ATCC27853, read-out: MIC, broth microdilution, P. aeruginosa ATCC 27853 spontaneous mutant, AA139 selection 8X, plate 1, colony 4, drug-free passage 1
  MIC: 0.5 µg/mL (≈ 1.3 µM)
[1]; ATCC27853, read-out: MIC, broth microdilution, P. aeruginosa ATCC 27853 spontaneous mutant, AA139 selection 8X, plate 1, colony 4, drug-free passage 5
  MIC: 0.5 µg/mL (≈ 1.3 µM)
[1]; ATCC27853, read-out: MIC, broth microdilution, P. aeruginosa ATCC 27853 spontaneous mutant, AA139 selection 8X, plate 1, colony 5, drug-free passage 1
  MIC: 0.5 µg/mL (≈ 1.3 µM)
[1]; ATCC27853, read-out: MIC, broth microdilution, P. aeruginosa ATCC 27853 spontaneous mutant, AA139 selection 8X, plate 1, colony 5, drug-free passage 5
  MIC: 0.25 µg/mL (≈ 0.652 µM)
[1]; read-out: BMD MIC, P. aeruginosa FADDI-070, MDR, PmxR, MHB/CAMHB, mode of 6 replicates
  MIC: 1 µg/mL (≈ 2.61 µM)
[1]; read-out: MIC, broth microdilution, P. aeruginosa UNT 138-1 spontaneous mutant, AA139 selection 4X, plate 1, colony 1, drug-free passage 1
  MIC: 0.12 µg/mL (≈ 0.313 µM)
[1]; read-out: MIC, broth microdilution, P. aeruginosa UNT 138-1 spontaneous mutant, AA139 selection 4X, plate 1, colony 1, drug-free passage 5
  MIC: 0.12 µg/mL (≈ 0.313 µM)
[1]; read-out: MIC, broth microdilution, P. aeruginosa UNT 138-1 spontaneous mutant, AA139 selection 4X, plate 1, colony 2, drug-free passage 1
  MIC: 0.12 µg/mL (≈ 0.313 µM)
[1]; read-out: MIC, broth microdilution, P. aeruginosa UNT 138-1 spontaneous mutant, AA139 selection 4X, plate 1, colony 2, drug-free passage 5
  MIC: 0.25 µg/mL (≈ 0.652 µM)
[1]; read-out: MIC, broth microdilution, P. aeruginosa UNT 138-1 spontaneous mutant, AA139 selection 4X, plate 1, colony 3, drug-free passage 1
  MIC: 0.06 µg/mL (≈ 0.156 µM)
[1]; read-out: MIC, broth microdilution, P. aeruginosa UNT 138-1 spontaneous mutant, AA139 selection 4X, plate 1, colony 3, drug-free passage 5
  MIC: 0.12 µg/mL (≈ 0.313 µM)
[1]; read-out: MIC, broth microdilution, P. aeruginosa UNT 138-1 spontaneous mutant, AA139 selection 4X, plate 1, colony 4, drug-free passage 1
  MIC: 0.06 µg/mL (≈ 0.156 µM)
[1]; read-out: MIC, broth microdilution, P. aeruginosa UNT 138-1 spontaneous mutant, AA139 selection 4X, plate 1, colony 4, drug-free passage 5
  MIC: 0.12 µg/mL (≈ 0.313 µM)
[1]; read-out: MIC, broth microdilution, P. aeruginosa UNT 138-1 spontaneous mutant, AA139 selection 4X, plate 1, colony 5, drug-free passage 1
  MIC: 0.12 µg/mL (≈ 0.313 µM)
[1]; read-out: MIC, broth microdilution, P. aeruginosa UNT 138-1 spontaneous mutant, AA139 selection 4X, plate 1, colony 5, drug-free passage 5
  MIC: 0.12 µg/mL (≈ 0.313 µM)
[1]; read-out: MIC, broth microdilution, P. aeruginosa UNT 138-1 spontaneous mutant, AA139 selection 4X, plate 1, colony 6, drug-free passage 1
  MIC: 0.06 µg/mL (≈ 0.156 µM)
[1]; read-out: MIC, broth microdilution, P. aeruginosa UNT 138-1 spontaneous mutant, AA139 selection 4X, plate 1, colony 6, drug-free passage 5
  MIC: 0.25 µg/mL (≈ 0.652 µM)
[1]; read-out: MIC, broth microdilution, P. aeruginosa UNT 138-1 spontaneous mutant, AA139 selection 4X, plate 1, colony 7, drug-free passage 1
  MIC: 0.06 µg/mL (≈ 0.156 µM)
[1]; read-out: MIC, broth microdilution, P. aeruginosa UNT 138-1 spontaneous mutant, AA139 selection 4X, plate 1, colony 7, drug-free passage 5
  MIC: 0.12 µg/mL (≈ 0.313 µM)
[1]; read-out: MIC, broth microdilution, P. aeruginosa UNT 138-1 spontaneous mutant, AA139 selection 4X, plate 2, colony 1, drug-free passage 1
  MIC: 0.06 µg/mL (≈ 0.156 µM)
[1]; read-out: MIC, broth microdilution, P. aeruginosa UNT 138-1 spontaneous mutant, AA139 selection 4X, plate 2, colony 1, drug-free passage 5
  MIC: 0.06 µg/mL (≈ 0.156 µM)
[1]; read-out: MIC, broth microdilution, P. aeruginosa UNT 138-1 spontaneous mutant, AA139 selection 4X, plate 2, colony 2, drug-free passage 1
  MIC: 0.25 µg/mL (≈ 0.652 µM)
[1]; read-out: MIC, broth microdilution, P. aeruginosa UNT 138-1 spontaneous mutant, AA139 selection 4X, plate 2, colony 2, drug-free passage 5
  MIC: 0.12 µg/mL (≈ 0.313 µM)
[1]; read-out: MIC, broth microdilution, P. aeruginosa UNT 138-1 spontaneous mutant, AA139 selection 4X, plate 2, colony 3, drug-free passage 1
  MIC: 0.12 µg/mL (≈ 0.313 µM)
[1]; read-out: MIC, broth microdilution, P. aeruginosa UNT 138-1 spontaneous mutant, AA139 selection 4X, plate 2, colony 3, drug-free passage 5
  MIC: 0.12 µg/mL (≈ 0.313 µM)
[1]; read-out: MIC, broth microdilution, P. aeruginosa UNT 138-1 spontaneous mutant, AA139 selection 4X, plate 2, colony 4, drug-free passage 1
  MIC: 0.12 µg/mL (≈ 0.313 µM)
[1]; read-out: MIC, broth microdilution, P. aeruginosa UNT 138-1 spontaneous mutant, AA139 selection 4X, plate 2, colony 4, drug-free passage 5
  MIC: 0.12 µg/mL (≈ 0.313 µM)
[1]; read-out: MIC, broth microdilution, P. aeruginosa UNT 138-1 spontaneous mutant, AA139 selection 4X, plate 2, colony 5, drug-free passage 1
  MIC: 0.5 µg/mL (≈ 1.3 µM)
[1]; read-out: MIC, broth microdilution, P. aeruginosa UNT 138-1 spontaneous mutant, AA139 selection 4X, plate 2, colony 5, drug-free passage 5
  MIC: 0.12 µg/mL (≈ 0.313 µM)
[1]; read-out: MIC, broth microdilution, P. aeruginosa UNT 138-1 spontaneous mutant, AA139 selection 4X, plate 2, colony 6, drug-free passage 1
  MIC: 0.5 µg/mL (≈ 1.3 µM)
[1]; read-out: MIC, broth microdilution, P. aeruginosa UNT 138-1 spontaneous mutant, AA139 selection 4X, plate 2, colony 6, drug-free passage 5
  MIC: 0.12 µg/mL (≈ 0.313 µM)
[1]; read-out: MIC, broth microdilution, P. aeruginosa UNT 138-1 spontaneous mutant, AA139 selection 4X, plate 2, colony 7, drug-free passage 1
  MIC: 0.06 µg/mL (≈ 0.156 µM)
[1]; read-out: MIC, broth microdilution, P. aeruginosa UNT 138-1 spontaneous mutant, AA139 selection 4X, plate 2, colony 7, drug-free passage 5
  MIC: 0.12 µg/mL (≈ 0.313 µM)
[1]; read-out: MIC, broth microdilution, P. aeruginosa UNT 138-1 spontaneous mutant, AA139 selection 8X, plate 1, colony 1, drug-free passage 1
  MIC: 0.06 µg/mL (≈ 0.156 µM)
[1]; read-out: MIC, broth microdilution, P. aeruginosa UNT 138-1 spontaneous mutant, AA139 selection 8X, plate 1, colony 1, drug-free passage 5
  MIC: 0.06 µg/mL (≈ 0.156 µM)
[1]; read-out: MIC, broth microdilution, P. aeruginosa UNT 138-1 spontaneous mutant, AA139 selection 8X, plate 1, colony 2, drug-free passage 1
  MIC: 0.06 µg/mL (≈ 0.156 µM)
[1]; read-out: MIC, broth microdilution, P. aeruginosa UNT 138-1 spontaneous mutant, AA139 selection 8X, plate 1, colony 2, drug-free passage 5
  MIC: 0.12 µg/mL (≈ 0.313 µM)
[1]; read-out: MIC, broth microdilution, P. aeruginosa UNT 138-1 spontaneous mutant, AA139 selection 8X, plate 1, colony 3, drug-free passage 1
  MIC: 0.12 µg/mL (≈ 0.313 µM)
[1]; read-out: MIC, broth microdilution, P. aeruginosa UNT 138-1 spontaneous mutant, AA139 selection 8X, plate 1, colony 3, drug-free passage 5
  MIC: 0.12 µg/mL (≈ 0.313 µM)
[1]; read-out: MIC, broth microdilution, P. aeruginosa UNT 138-1 spontaneous mutant, AA139 selection 8X, plate 1, colony 4, drug-free passage 1
  MIC: 0.12 µg/mL (≈ 0.313 µM)
[1]; read-out: MIC, broth microdilution, P. aeruginosa UNT 138-1 spontaneous mutant, AA139 selection 8X, plate 1, colony 4, drug-free passage 5
  MIC: 0.12 µg/mL (≈ 0.313 µM)
[1]; read-out: MIC, broth microdilution, P. aeruginosa UNT 138-1 spontaneous mutant, AA139 selection 8X, plate 1, colony 5, drug-free passage 1
  MIC: 0.06 µg/mL (≈ 0.156 µM)
[1]; read-out: MIC, broth microdilution, P. aeruginosa UNT 138-1 spontaneous mutant, AA139 selection 8X, plate 1, colony 5, drug-free passage 5
  MIC: 0.06 µg/mL (≈ 0.156 µM)
[1]; read-out: MIC, broth microdilution, P. aeruginosa UNT 138-1 spontaneous mutant, AA139 selection 8X, plate 2, colony 1, drug-free passage 1
  MIC: 0.06 µg/mL (≈ 0.156 µM)
[1]; read-out: MIC, broth microdilution, P. aeruginosa UNT 138-1 spontaneous mutant, AA139 selection 8X, plate 2, colony 1, drug-free passage 5
  MIC: 0.12 µg/mL (≈ 0.313 µM)
[2]; S. aureus ATCC 25923 MSSA, CAMHB, mode of 6 replicates
  BMD MIC: 0.06 µg/mL
[2]; Staphylococcus aureus, ATCC25923 / MSSA, read-out: BMD MIC
  MIC: 0.06 µg/mL (≈ 0.156 µM)
[3]
  BMD MIC: ≤1 µg/mL

Reference: publication PMC7311426, “An amphipathic peptide with antibiotic activity against multidrug-resistant Gram-negative bacteria” (Nature Communications, 2020)
